The record followed here is patent publication US20230119539A1, “TRACELESS LINKERS AND PROTEIN-CONJUGATES THEREOF” (Regeneron Pharmaceuticals, Inc., priority 2019, published 2023).

Series [1] is described as follows: Metabolic stability with human liver microsomes. The conditions noted are these: for Percent Remaining (%): Mean; for CLint scaled / half-life: human. Type of series: in vitro ADME. On the procedure: The metabolic stability of payload PIII-1 incubated with human liver microsomes was evaluated and the results were shown in the Table 7e below.
In series [2] the target is T1, GR (Homo sapiens, UniProt P04150).
T1 construct: host or cells: HEK293 (HEK293/GRLuc; HEK293/GRLuc/MSR1 additionally transduced with human MSR1)
T1 sequence (P04150 524-758 limits assumed): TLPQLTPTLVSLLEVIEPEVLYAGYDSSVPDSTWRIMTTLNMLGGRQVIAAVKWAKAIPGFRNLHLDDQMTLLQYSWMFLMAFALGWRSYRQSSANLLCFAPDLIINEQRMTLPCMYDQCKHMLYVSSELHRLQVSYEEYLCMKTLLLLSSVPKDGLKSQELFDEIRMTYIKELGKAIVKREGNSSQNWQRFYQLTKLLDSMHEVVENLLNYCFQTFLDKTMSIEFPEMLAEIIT
Description: GR luciferase reporter assay in HEK293/GRLuc cells. Type of series: cell-based. The conditions noted are these: for EC50: 48 hours. On the procedure: (§1) Activity of anti-MSR1 ncADCs were tested using an MSR1 ADC steroid responsive luciferase reporter assay. To generate the assay cell line, HEK293 cells were co-transfected with the pBind-GR (Promega, Cat #E158A) and pGL4.35 [Luc2P/9xGAL4UAS/Hygro] (Promega, Cat #E137A) vectors. The pBind-GR vector expresses a fusion protein consisting of the GR ligand binding and the yeast Gal4DNA-binding domain, which binds to the Gal4 upstream activation sequence (UAS) in the luciferase expression vector, that can induce luciferase expression following GR agonist binding. The cells were selected for at least 2 weeks in G418+hygromycin and the resulting cell line is referred to as HEK293/GRLuc. HEK293/GRLuc cells were then transduced with a human MSR1 lentiviral expression vector and 48 hours later cells were sorted for MSR1 positive cells. The resulting cell line is referred to as HEK293/GRLuc/MSR1.
(§2) Three-fold serial dilutions of ncADCs in assay buffer were added to the cells for 48 hours. The last well in the plate served as blank control containing only the assay media and was plotted as a continuation of the 3-fold serial dilution. Luciferase activity was determined using the One-Glo™ reagent (Promega, Cat #E6130). Relative light units (RLUs) were measured on an Envision luminometer (PerkinElmer) and EC50 values were determined using a four-parameter logistic equation over a 10-point dose response curve (GraphPad Prism). The signal to noise (S/N) was determined by taking the ratio of the highest RLU on the dose response curve to the RLU in the untreated wells.
(§3) To test the activity of GR agonist payloads disclosed herein, a cell-based GR responsive luciferase reporter assay was developed as described above.
(§4) Three-fold serial dilutions of free payloads were prepared in 100% DMSO, transferred to fresh assay media, and added to the cells for 48 hours. […] The last well in the plate served as blank control containing only the assay media and 0.2% DMSO (untreated well) and was plotted as a continuation of the 3-fold serial dilution. Luciferase activity was determined using the One-Glo™ reagent (Promega, Cat #E6130). Relative light units (RLUs) were measured on an Envision luminometer (PerkinElmer) and EC50 values were determined using a four-parameter logistic equation over a 10-point dose response curve (GraphPad Prism). The signal to noise (S/N) was determined by taking the ratio of the highest RLU on the dose response curve to the RLU in the untreated wells.

Series [3] concerns the target T1, GR. The series can be described thus: GR luciferase reporter assay in HEK293/GRLuc/MSR1 cells. Format: cell-based. The following applies: Table 8b, free payloads; for S/N: HEK293/GRLuc/MSR1; for EC50: HEK293/GRLuc/MSR1, 48 hours. Here is the method:
as §1, §2, §3, §4

In series [4] the target is T2, human macrophage scavenger receptor 1 (MSR1) (human, UniProt P21757 1-451).
T2 sequence (looked up): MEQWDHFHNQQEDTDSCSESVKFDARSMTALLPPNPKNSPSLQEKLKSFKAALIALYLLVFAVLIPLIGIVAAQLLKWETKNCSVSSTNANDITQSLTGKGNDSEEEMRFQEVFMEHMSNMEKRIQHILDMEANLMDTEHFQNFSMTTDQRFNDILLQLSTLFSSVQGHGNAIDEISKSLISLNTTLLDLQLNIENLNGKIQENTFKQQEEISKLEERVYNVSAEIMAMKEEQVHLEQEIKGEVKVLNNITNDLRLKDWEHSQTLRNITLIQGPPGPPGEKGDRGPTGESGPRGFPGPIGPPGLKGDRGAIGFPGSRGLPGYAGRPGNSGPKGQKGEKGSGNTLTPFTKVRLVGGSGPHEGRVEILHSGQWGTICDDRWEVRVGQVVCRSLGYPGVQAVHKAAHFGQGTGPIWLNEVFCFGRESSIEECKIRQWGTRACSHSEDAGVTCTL
The series can be described thus: cell-based or functional assay.

A short description of series [5]: Lysosomal cleavage assay (payload release). The following applies: 0 hours, 1 μM payload-equivalent ncADC, 37° C.; for Released Payload Precursor Concentration: precursor PIII-1 released; for Released Payload Concentration: steroid III released. Type of series: in vitro ADME, human. Here is the method: To confirm the release of payloads linked to antibodies via hemiaminal ether linkers, a lysosomal cleavage assay was performed. […] 200 μL of resulting mixture with 1 μM payload-equivalent ncADC was incubated at 37° C. with gentle shaking over a 24-hour period. A 20 μL aliquot was taken at 0, 0.5, 1.0, 2.0, 4.0, 8.0 and 24 hours and immediately transferred to a plate containing 80 μL cold acetonitrile to deactivate the lysosomal enzymes and precipitate the proteins. After centrifugation at 2,000 rpm for 5 minutes, aliquots of supernatant were diluted with an equal volume of water for LC-MS analysis to determine the amount of precursor and payload released from ncADC.

Setting [6] is: Table 8, ncADCs, highest RLU / RLU of untreated wells.

As to `CCCC1O[C@@H]2C[C@H]3[C@@H]4C[C@H](F)C5=CC(=O)C=C[C@]5(C)[C@@]4(F)[C@@H](O)C[C@]3(C)[C@]2(C(=O)CO)O1` (stereo partly shown) [III], the “Percent Remaining (%)” value in series [1] (0 min) was 100.00%; in series [1] (5 min), 16.15%; in series [1] (15 min), 0.75%; in series [1] (30 min), 0.76%; in series [1] (45 min) it was 0.14%. The CLint scaled in series [1] came to 811 mL/min/kg. Also, in series [1], the half-life worked out at 2.14 min. Besides, the S/N in series [2] (Table 8b, free payloads) was 34.4; in series [3], 156.7. Further, the EC50 in series [2] (Table 8b, free payloads) came out at 19.7 pM; in series [3] it was 24.2 pM.

On to `CCCC1O[C@@H]2C[C@H]3[C@@H]4C[C@H](F)C5=CC(=O)C=C[C@]5(C)[C@@]4(F)[C@@H](O)C[C@]3(C)[C@]2(C(=O)COCNC(=O)CN)O1` (stereo partly drawn) [PIII-1, 2-Amino-N-({2-[(1S,2S,4R,8S,9S,11S,12R,13S,19S)-12,19-difluoro-11-hydroxy-9,13-dimethyl-16-oxo-6-propyl-5,7-dioxapentacyclo[10.8.0.0^2,9.0^4,8.0^13,18]icosa-14,17-dien-8-yl]-2-oxoethoxy}methyl)acetamide], for which the “Percent Remaining (%)” value was 100.00% in series [1] (0 min); 59.35% in series [1] (5 min); 23.58% in series [1] (15 min); 6.83% in series [1] (30 min); 2.68% in series [1] (45 min). The same molecule came in with a CLint scaled in series [1] of 223 mL/min/kg. In series [1], this molecule returned a half-life of 7.8 min. For the same molecule, the S/N in series [2] (Table 8b, free payloads) is listed as 32.1; in series [3] it was 179.3. In addition, the EC50 in series [2] (Table 8b, free payloads) was 46.5 pM; in series [3] it was 54.5 pM.

B1: H1H21234N-N297Q-L1-PIII-1 (antibody, V domains shown)
VH: QVQLQESGPGLVKPSETLSLTCTVTGGSISRNYWSWIRQPPGKGLEWIGYIYYSGSIDYNPSLKSRVTISVDTSKNQFSLKLSSMTAADTAVYYCARDRWNWKYGMDVWGQGTTVIVSS
VL: EIVLTQSPGTLSLSPGERATLSCRASQTVRNNYLAWYHQKPGQAPRLLIYGASSRATGIPDRFSGSGSGTDFTLTISRLEPEDFTVYYCHQYGNSPWTFGQGTKMEIKR
modifications: heavy-chain constant region (not part of this entry): N297Q (EU); linker-payload L1-PIII-1 (DIBAC-suc-PEG4-vcPAB-PIII-1, payload 6,11-2F-budesonide III) clicked onto azido-PEG3-amine on glutamines; DAR 4
For the molecule B1, the EC50 in series [2] (Table 8, ncADCs) came to 50600 pM. In series [2] (setting [6]), this molecule showed a S/N of 16.4. In series [4], the “EC50, GR luciferase reporter activity in HEK293/GRLuc/MSR1 cells” value is 97.3 pM and the “S/N (highest RLU / RLU in untreated wells), HEK293/GRLuc/MSR1 cells” value was determined as 143. In series [5], the “Released Payload Precursor Concentration” value is reported as 0 nM and the “Released Payload Concentration” value was 0 nM.

B2: H1H21234N-N297Q-L3-PIII-1 (antibody, V domains shown)
VH: QVQLQESGPGLVKPSETLSLTCTVTGGSISRNYWSWIRQPPGKGLEWIGYIYYSGSIDYNPSLKSRVTISVDTSKNQFSLKLSSMTAADTAVYYCARDRWNWKYGMDVWGQGTTVIVSS
VL: EIVLTQSPGTLSLSPGERATLSCRASQTVRNNYLAWYHQKPGQAPRLLIYGASSRATGIPDRFSGSGSGTDFTLTISRLEPEDFTVYYCHQYGNSPWTFGQGTKMEIKR
modifications: heavy-chain constant region (not part of this entry): N297Q (EU); linker-payload L3-PIII-1 (DIBAC-suc-PEG4-GGF-PIII-1) clicked onto azido-PEG3-amine on glutamines; DAR 4
As to B2, in series [2] (Table 8, ncADCs), a half-maximal effect (EC50) was put at 47600 pM. For the same molecule, the S/N in series [2] (setting [6]) was 17.5. In series [4], the “EC50, GR luciferase reporter activity in HEK293/GRLuc/MSR1 cells” value is 85.4 pM and the “S/N (highest RLU / RLU in untreated wells), HEK293/GRLuc/MSR1 cells” value turned out to be 269. Further, in series [5], the “Released Payload Precursor Concentration” value is given as 0 nM and the “Released Payload Concentration” value is reported as 10.1 nM.
